Read-outs that look alike come from different tables or passages of the source.
Columns and labels:
HCV genotype 1b replicon = assay: HCV replicon assay (HCV-REPL LUC), luciferase reporter; type: cell-based, hepatitis C virus
Method: Huh-7-derived cell line (Zluc) that harbors an HCV genotype 1b replicon and a luciferase reporter gene was grown in Dulbecco's Modified Eagle Medium (DMEM) supplemented with 10% fetal bovine serum, 2 mM GlutaMAX, 1% MEM nonessential amino acids, 100 IU/mL penicillin, 100 μg/mL streptomycin, and 0.5 mg/mL Geneticin® (G418). For dose response testing the cells were seeded in 96-well plates at 7.5×10^3 cells per well in a volume of 50 μl, and incubated at 37° C./5% CO2. Drug solutions were made up freshly in Huh-7 media as 2× stocks. Ten additional 5-fold dilutions were prepared from these stocks in DMEM without G418. At least three hours after Zluc cells were seeded, drug treatment was initiated by adding 50 μL of drug dilutions to the plates in duplicate. […] Cells were then incubated at 37° C./5% CO2. Alternatively compounds were tested at two concentrations (10 nM and 100 nM). […] After 72 hours of incubation, the inhibition of HCV replication was measured by quantification of photons emitted after mono-oxygenation of 5′-fluoroluciferin to oxyfluoroluciferin by firefly luciferase. For this, media was removed from the plates via gentle tapping. Fifty microliters of ONE-glo luciferase assay reagent was added to each well. The plates were shaken gently for 3 min at room temperature and luminescence was measured on a Victor^3 V 1420 multilabel counter (Perkin Elmer) with a 1 second read time using a 700 nm cut-off filter. The EC50 values were calculated from dose response curves from the resulting best-fit equations determined by Microsoft Excel and XLfit 4.1 software.
Compounds presented in the table below were assayed according to the replicon assay described above.

[1] = Cytotoxicity evaluation, CellTiter-Blue Cell Viability Assay; type: cell-based; settings: human, Zluc cells (Huh-7-derived HCV replicon cell line)
Method: (§1) For cytotoxicity evaluation, Zluc cells were treated with compound as described above, and cell viability was monitored using the CellTiter-Blue Cell Viability Assay (Promega) by adding 20 μL of the assay solution to each well. The plates were then incubated at 37° C./5% CO2 for at least 3 hours. Fluorescence was detected in plates using excitation and emission wavelengths of 560 and 590 nm, respectively, in a Victor^3 V 1420 multilabel counter (Perkin Elmer) and CC50 values were determined using Microsoft Excel and XLfit 4.1 software.

[2] = test system: Zluc cells (Huh-7-derived cell line); assay: as above; type: cell-based; settings: read-out: HCV Replicon CC50
Method: as §1

[3] = Hepatitis C virus, Huh-7, 72 h, read-out: HCV Replicon EC50, Zluc cells (Huh-7, HCV genotype 1b replicon, luciferase), 72 hours incubation

Row | SMILES | EC50 (HCV genotype 1b replicon; [3]) | CC50 [1] | EC50 (HCV genotype 1b replicon; read-out: HCV Replicon EC50, Zluc cells (Huh-7, HCV genotype 1b replicon, luciferase), 72 hours incubation) | CC50 [2]
1 | CCOC(=O)[C@H](Cc1ccccc1)NP(=O)(OCC(=O)OC(C)C)OC[C@H]1O[C@@H](n2cnc3c(OC)nc(N)nc32)[C@](C)(O)[C@@H]1O (mixture of isomers) [Compound 2] | 0.5 to 1 µM | ≥ 100 µM | – | –
2 | CCOC(=O)[C@@H](NP(=O)(OCCC(=O)OC(C)(C)C)OC[C@H]1O[C@@H](n2cnc3c(OC)nc(N)nc32)[C@](C)(O)[C@@H]1O)C(C)C (mixture of isomers) [Compound 6] | 1 to 5 µM | ≥ 100 µM | – | –
3 | CCOC(=O)COP(=O)(N[C@H](C(=O)OC)C(C)C)OC[C@H]1O[C@@H](n2cnc3c(OCC)nc(N)nc32)[C@](C)(O)[C@@H]1O (mixture of isomers) [Compound 7] | 1 to 5 µM | ≥ 100 µM | – | –
4 | CCOC(=O)COP(=O)(N[C@@H](CCSC)C(=O)OCC)OC[C@H]1O[C@@H](n2cnc3c(OC)nc(N)nc32)[C@](C)(O)[C@@H]1O (mixture of isomers) [Compound 9] | 1 to 5 µM | ≥ 100 µM | – | –
5 | COc1nc(N)nc2c1ncn2[C@@H]1O[C@H](COP(=O)(N[C@@H](CC(C)C)C(=O)OC(C)C)OCC(=O)NCc2ccc(F)cc2)[C@@H](O)[C@@]1(C)O (mixture of isomers) [Compound 10] | 1 to 5 µM | ≥ 100 µM | – | –
6 | CCOC(=O)COP(=O)(N[C@@H](CC(C)C)C(=O)OC(C)C)OC[C@H]1O[C@@H](n2cnc3c(OC)nc(N)nc32)[C@](C)(F)[C@@H]1O (mixture of isomers) [Compound 12] | 0.5 to 1 µM | ≥ 100 µM | – | –
7 | CCOC(=O)COP(=O)(N[C@@H](CC(C)C)C(=O)OC(C)C)OC[C@H]1O[C@@H](n2cnc3c(OC)nc(N)nc32)[C@](C)(O)[C@@H]1O (single isomer, unassigned) [Compound 11a] | 1 to 5 µM | ≥ 100 µM | – | –
8 | CCOC(=O)COP(=O)(N[C@@H](CC(C)C)C(=O)OC(C)C)OC[C@H]1O[C@@H](n2cnc3c(OC)nc(N)nc32)[C@](C)(O)[C@@H]1O (single isomer, unassigned) [Compound 11b] | – | – | < 0.5 µM | 50 to 99 µM
9 | COc1nc(N)nc2c1ncn2[C@@H]1O[C@H](COP(=O)(N[C@@H](C)C(=O)OC(C)C)OCC(=O)OC(C)C)[C@@H](O)[C@@]1(C)O (stereo partly shown) [Compound 1] | 1 to 5 µM | ≥ 100 µM | – | –
10 | CCOC(=O)COP(=O)(N[C@H](Cc1ccccc1)C(=O)OC(C)C)OC[C@H]1O[C@@H](n2cnc3c(OC)nc(N)nc32)[C@](C)(O)[C@@H]1O (stereo partly shown) [Compound 3] | 5 to 10 µM | ≥ 100 µM | – | –
11 | COc1nc(N)nc2c1ncn2[C@@H]1O[C@H](COP(=O)(N[C@@H](CC(C)C)C(=O)OC(C)C)OC(C)C(=O)OCc2ccccc2)[C@@H](O)[C@@]1(C)O (stereo partly shown) [Compound 4] | 0.5 to 1 µM | 50 to 99 µM | – | –
12 | COc1nc(N)nc2c1ncn2[C@@H]1O[C@H](COP(=O)(N[C@@H](CC(C)C)C(=O)OC(C)C)OCCCC(=O)NCc2ccc(F)cc2)[C@@H](O)[C@@]1(C)O (stereo partly shown) [Compound 5] | 5 to 10 µM | ≥ 100 µM | – | –
13 | CCOC(=O)COP(=O)(NC(C(=O)OCC)c1ccccc1)OC[C@H]1O[C@@H](n2cnc3c(OC)nc(N)nc32)[C@](C)(O)[C@@H]1O (stereo partly shown) [Compound 8] | 5 to 10 µM | ≥ 100 µM | – | –
14 | CCOC(=O)COP(=O)(N[C@@H](CC(C)C)C(=O)OC(C)C)OC[C@H]1O[C@@H](n2cnc3c(OC)nc(N)nc32)[C@](C)(O)[C@@H]1O (stereo partly shown) [Compound 11] | < 0.5 µM | ≥ 100 µM | – | –

Reference: US8951985B2, “Compounds and pharmaceutical compositions for the treatment of viral infections” (Idenix Pharmaceuticals, Inc., priority 2011, dated 2015)
